Reference: patent US6967096B2, “Thermostable peptidase” (California Institute of Technology, priority 1998, dated 2005)
“Also recorded” adds a separate entry of the source. Read-outs that look alike come from different tables or passages of the source. Peptide text beside a SMILES is read from it. * marks the point of attachment. Cbz = O=C(OCc1ccccc1)*; Bz = O=C(c1ccccc1)*

Experiments:
PfuCP [1] = target: T1, PfuCP (Pyrococcus furiosus, UniProt Q8U3L0); type: biochemical
T1 construct: Pure PfuCP fractions (1391 U.mg^1; 11 mg), as determined by SDS-PAGE, were pooled and stored at −80° C; endogenous in cells; host or cells: Pyrococcus furiosus cell paste; enzyme purified in house by column chromatography
T1 sequence (Q8U3L0 1-499): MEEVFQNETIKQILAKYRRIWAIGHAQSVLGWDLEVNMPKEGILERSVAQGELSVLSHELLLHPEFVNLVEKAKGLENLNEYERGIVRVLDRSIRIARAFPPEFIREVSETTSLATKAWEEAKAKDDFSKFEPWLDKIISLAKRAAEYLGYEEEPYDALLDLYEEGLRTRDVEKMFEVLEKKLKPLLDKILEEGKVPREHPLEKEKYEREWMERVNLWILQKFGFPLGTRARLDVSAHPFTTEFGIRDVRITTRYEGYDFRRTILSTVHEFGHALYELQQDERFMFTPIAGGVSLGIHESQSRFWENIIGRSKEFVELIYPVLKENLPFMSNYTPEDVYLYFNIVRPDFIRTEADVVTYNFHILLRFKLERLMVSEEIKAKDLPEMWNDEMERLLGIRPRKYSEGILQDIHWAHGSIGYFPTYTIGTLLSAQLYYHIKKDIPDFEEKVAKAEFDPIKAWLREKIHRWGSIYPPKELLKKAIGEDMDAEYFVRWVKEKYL
Protocol: (§1) Assay of Enzyme Activity: Unless stated otherwise, enzymatic activity was assayed using 4 μl of enzyme sample in a total volume of 100 μl of 0.1 M KMES buffer (pH 6.5), starting with 2 mM ZAR in the presence of 0.4 mM CoCl2. Polypropylene microcentrifuge tubes were used. The enzyme and substrate were mixed quickly at room temperature and then brought to 80° C.; the equilibration time for the reaction mixture to reach 80° C. was considered negligible relative to the time scale of the assay. The reaction mixture was incubated at 80° C. in a water bath (Neslab EX-200 DD) for 10 minutes followed by quenching on ice. Subsequently, 750 μl of cadmium-ninhydrin reagent (21) was added and the samples were incubated for an additional 5 min at 80° C. for color development followed by quenching on ice. The absorbance was read at 500 nm (HP 8452A diode array spectrophotometer) with an unheated assay mixture containing Cd-ninhydrin reagent serving as the blank. Absorbances were compared with an arginine standard curve in order to calculate specific activities. Stock solutions of ZAR and CoCl2 were prepared in 0.1 M KMES buffer (pH 6.5), and when necessary, dilution of enzyme samples was done in 50 mM Tris-Cl buffer (pH 8.0). All pH adjustments were performed at room temperature. The free amine of the liberated arginine reacts with ninhydrin to yield the chromophore, Ruheman's purple (absorbance at 500 nm).

[2] = test system: carboxypeptidase activity in crude extract; assay: Effect of DTT and EDTA on carboxypeptidase activity in crude extract; type: biochemical, Pyrococcus furiosus; conditions: preliminary studies
PfuCP [3] = target: T1, PfuCP; assay: Hydrolysis of synthetic substrates by PfuCP; type: biochemical; conditions: for hydrolysis by PfuCP: initial studies and control experiment; for hydrolysis by PfuCP at longer digestion time: digestion time 30 minutes, not detected under standard conditions
Protocol: as §1
One unit of activity is defined as the amount of enzyme required to generate one μmole of arginine from ZAR in one minute at 80° C. Activity assays for other ZAX amino acid substrates (X=A, D, E, F, G, H, I, K, L, M, N, P, R, S, V, W, Y) were performed under otherwise identical assay conditions; appropriate amino acids were used to prepare standard curves. Spontaneous hydrolysis of the synthetic substrates was not observed at these temperatures. Protein concentrations were quantified by the Bradford assay using bovine serum albumin as the standard.

PfuCP [4] = target: T1, PfuCP; assay: Re-activation by metal ions: divalent metal ion dependence of PfuCP activity; type: biochemical; conditions: at 80° C.; linear reciprocal plot; read-out: binding constant (Kd) for Co^2+
Protocol: as §1, with “All pH adjustments were performed at room temperature.” left out, “nm). […]” for “nm).”

SMILES: O=C(O)CN(CCN(CC(=O)O)CC(=O)O)CC(=O)O [EDTA, ethylenediaminetetraacetic acid]
- effect on PfuCP activity (PfuCP [1]): not observed
- reversibility of inhibition (PfuCP [1]): fully reversible
- effect on carboxypeptidase activity in crude extract [2]: completely abolished

SMILES: C[C@H](NC(=O)OCc1ccccc1)C(=O)O [ZA, N-Cbz-Ala]
- hydrolysis by PfuCP (PfuCP [3]): no hydrolysis

SMILES: CC(NC(=O)OCc1ccccc1)C(=O)NC(Cc1cnc[nH]1)C(=O)O (stereo not drawn) [ZAH]
- hydrolysis by PfuCP at longer digestion time (PfuCP [3]): hydrolyzed; also recorded: observed

SMILES: C[C@H](NC(=O)OCc1ccccc1)C(=O)N[C@@H](CC(N)=O)C(=O)O [ZAN] (Cbz-Ala-Asn-OH)
- hydrolysis by PfuCP at longer digestion time (PfuCP [3]): hydrolyzed; also recorded: observed

SMILES: NC(N)=NCCC[C@H](NC(=O)CNC(=O)c1ccccc1)C(=O)O [hippuryl-arginine, N-Benzoyl-Gly-Arg] (Bz-Gly-Arg-OH)
- hydrolysis by PfuCP (PfuCP [3]): active

SMILES: CC(NC(=O)OCc1ccccc1)C(=O)NC(CO)C(=O)O (stereo not drawn) [ZAS]
- hydrolysis by PfuCP at longer digestion time (PfuCP [3]): hydrolyzed; also recorded: observed

SMILES: O=C(O)CNC(=O)c1ccccc1 [hippuric acid, Bz-Gly]
- hydrolysis by PfuCP (PfuCP [3]): activity

SMILES: O=S(=O)(F)Cc1ccccc1 [PMSF, Phenymethylsulfonyl fluoride]
- effect on PfuCP activity (PfuCP [1]; 1 mM): no effect
- effect on the enzymatic activity of the polypeptide (PfuCP [1]; concentration not given): no effect

SMILES: O[C@H](CS)[C@H](O)CS (racemic) [DTT, dithiothreitol]
- reversibility of inhibition (PfuCP [1]): fully reversible
- effect on PfuCP activity (PfuCP [1]; 2 mM): not observed
- effect on carboxypeptidase activity in crude extract [2]: completely abolished

SMILES: [Co+2] [Co^2+]
- Kd (PfuCP [4]): 13 ± 3 µM
